34 compounds from PubChem BioAssay AID1645866 (Buhrlage Lab, Dana-Farber Cancer Institute and Novartis …, 2021) can be followed below.

Structures are written as SMILES. Calls of active or inactive are those of the source.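 Rule for the calls: active = in confirmatory dose-response testing, peak deubiquitinase inhibition of 30% or more; inactive = the rest.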

The target in the assay is Ubiquitin carboxyl-terminal hydrolase 28 (Homo sapiens) (UniProt Q96RU2). Briefly: Concentration-response biochemical assay confirming initial hits as inhibitors of ubiquitin-specific protease 28 (AID 1645866). Particulars: purified USP28, ubiquitin-rhodamine fluorescence, 30 min.
Sequence of Ubiquitin carboxyl-terminal hydrolase 28 (Homo sapiens) (Q96RU2 whole entry, looked up): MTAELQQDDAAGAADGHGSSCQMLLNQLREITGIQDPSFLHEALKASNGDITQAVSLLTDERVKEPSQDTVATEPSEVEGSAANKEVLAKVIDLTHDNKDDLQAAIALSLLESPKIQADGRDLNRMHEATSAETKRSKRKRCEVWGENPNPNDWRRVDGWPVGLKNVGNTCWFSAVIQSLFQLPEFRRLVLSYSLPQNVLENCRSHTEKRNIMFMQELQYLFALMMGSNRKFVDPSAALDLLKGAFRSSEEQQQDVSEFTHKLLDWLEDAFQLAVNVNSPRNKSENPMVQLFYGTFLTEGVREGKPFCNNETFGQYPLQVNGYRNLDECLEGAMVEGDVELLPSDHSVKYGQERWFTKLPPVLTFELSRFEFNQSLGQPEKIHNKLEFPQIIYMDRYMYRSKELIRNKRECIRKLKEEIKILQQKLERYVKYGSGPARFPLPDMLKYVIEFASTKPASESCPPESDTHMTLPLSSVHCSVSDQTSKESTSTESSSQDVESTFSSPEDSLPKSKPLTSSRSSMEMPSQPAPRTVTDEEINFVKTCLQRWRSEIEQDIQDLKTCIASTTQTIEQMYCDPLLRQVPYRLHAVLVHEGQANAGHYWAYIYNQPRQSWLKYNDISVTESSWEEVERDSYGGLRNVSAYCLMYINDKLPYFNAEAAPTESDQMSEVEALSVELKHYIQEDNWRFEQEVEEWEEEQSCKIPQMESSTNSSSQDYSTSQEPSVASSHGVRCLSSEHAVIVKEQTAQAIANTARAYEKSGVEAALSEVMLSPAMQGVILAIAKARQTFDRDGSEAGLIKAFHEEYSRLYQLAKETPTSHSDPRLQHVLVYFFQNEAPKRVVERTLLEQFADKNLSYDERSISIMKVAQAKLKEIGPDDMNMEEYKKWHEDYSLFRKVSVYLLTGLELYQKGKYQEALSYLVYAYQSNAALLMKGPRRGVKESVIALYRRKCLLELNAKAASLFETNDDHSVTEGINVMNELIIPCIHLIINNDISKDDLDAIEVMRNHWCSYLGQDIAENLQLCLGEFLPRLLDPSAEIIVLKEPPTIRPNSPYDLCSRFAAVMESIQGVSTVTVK

A word on the IC50: it is the concentration at which inhibition is half-maximal. Take `Cc1ccc(-c2nc(NC(=O)COc3ccc(Cl)cc3)no2)cc1`: the IC50 is 4.74 µM.
The figure for `COc1cc(-c2nc(C(N)=O)c3[nH]c(=O)n(-c4ccc(C)cc4)c3n2)cc(OC)c1OC` is 1.72 µM.
Under `COc1ccc(COC(=O)C2=C(C)NC(=O)CC2c2cccc([N+](=O)[O-])c2)cc1` (centres undefined) stands 3.06 µM; under `CC1(O)CC(=O)c2c(cc3cc(O)cc(O)c3c2O)C1` (centres undefined), 0.0671 µM; under `c1coc(CNc2nc3ccccc3n3nnnc23)c1`, > 50 µM (inactive).
Consider `NS(=O)(=O)c1ccc(NC(=O)Cn2cnc3cc([N+](=O)[O-])ccc3c2=O)cc1`, for which the IC50 was 19.9 µM.
Consider `COc1ccc(Nc2nc3c(S(=O)(=O)c4ccc(C)cc4)nnn3c3ccsc23)c(OC)c1`, for which the IC50 is 2.01 µM.
On to `COc1ccc(C)cc1NC(=O)Cc1csc(NC(=O)c2ccc(=O)[nH]c2)n1`, for which the IC50 is 46.9 µM.
Under `NC(=O)c1ccc(NC(=O)Cc2cc(-c3ccc(Cl)cc3)on2)cc1` stands > 50 µM (inactive).
Under `O=C(Cc1c[nH]c2ccccc12)Nc1nc2ccccc2s1` stands 21.2 µM; under `CCN(CC)c1nc(F)c2c(c1F)S(=O)(=O)CCN2Cc1ccccc1`, > 50 µM (inactive); under `CCn1cnc2c1c(=O)n(CC(=O)NCc1ccccc1Cl)c(=O)n2Cc1ccccc1`, > 50 µM (inactive).
Under `C=C[C@]1(C)C=C2C(=O)[C@]3(O)OC(=O)[C@@]4(CCCC(C)(C)[C@H]34)[C@@]2(O)CC1` stands 27.6 µM; under `O=C(NCc1ccc(-c2nc3cnccc3o2)cc1)c1cc2ccccc2o1`, 4.43 µM.
As for `Cc1ccc(CNC(=O)c2cccc(N3C(=O)N4CCc5c([nH]c6ccccc56)[C@@]4(C)C3=O)c2)cc1`, the IC50 was 44 µM.
Under `COC(=O)c1ccc(Cn2cnc3ccc(Br)cc3c2=O)o1` stands 2.07 µM; under `COc1cc(/C=C/C(=O)OCC(=O)Nc2ccc([N+](=O)[O-])cc2OC)ccc1O`, 18.8 µM.
Turning to `CSc1ccc(CNC(=O)CC2CCN(S(=O)(=O)c3ccc(C)cc3)CC2)cc1`, the IC50 was 16.3 µM.
The figure for `COc1ccc(NS(=O)(=O)c2ccc(NC(=O)Nc3ccc(Cl)cc3)cc2)cc1` is 24.9 µM; for `Cc1ccccc1OCCSc1nc2ccccc2n1CC(=O)NC1CC1` it is 20.7 µM; for `O=C1C[C@@H]2O[C@H](CNC(=O)[C@@H]3CN(CCN3C(=O)C3CCOCC3)C(=O)[C@@H]3C[C@@H](CN3Cc3ccc(F)c(F)c3)N1)[C@@H](O)[C@H]2O` it is > 50 µM (inactive).
Consider `COc1c(C)c(C(O)C(C)O)c2[nH]c3ccc(CC=C(C)C)cc3c2c1O` (centres undefined), for which the IC50 is 17.4 µM.
The figure for `Cc1ccc(-n2nc(C(=O)Nc3ccc(C)cn3)c3ncn(C)c(=O)c32)cc1` is 1.69 µM; for `COc1ccc(NC2c3ccccc3C(=O)N2c2ccccn2)cc1` (centres undefined) it is > 50 µM (inactive).
Under `O=C(COC(=O)c1cc(Cl)ccc1O)Nc1ccc2c(c1)OCCO2` stands 24.3 µM; under `O=C1COc2ccc(NC(=O)c3cnn(Cc4ccccc4)c3)cc2N1`, 25.4 µM.
Take `COc1ccc2[nH]c3c(c2c1)CCN1C(=O)N(c2ccccc2C(=O)NCc2ccccc2)C(=O)[C@]31C`: the IC50 is 46.4 µM.
For the compound `C/C1=C/C=C/[C@H](C)[C@H](O)[C@@H](C)[C@@H](O)[C@@H](C)[C@H](O)[C@H](C)[C@@H](O)[C@@H](C)/C=C(/C)C(=O)c2c(O)c(C)cc3c2C(=O)C=C(NC1=O)C3=O`, the IC50 is > 50 µM (inactive).
Under `CNS(=O)(=O)c1ccc(CNC(=O)c2cc(-c3ccc(C)cc3)no2)cc1` stands 21 µM; under `O=C(NC1CC1)c1ccnn1-c1ccc2ccc(-c3ccncc3)cn12`, > 50 µM (inactive); under `O=C(Nc1ccccc1)c1cn(-c2cc(N3CCCC3)ncn2)cn1`, > 50 µM (inactive).
Under `Cc1ccc2[nH]c(=O)c(CN(CC3CCCO3)S(=O)(=O)c3ccccc3)cc2c1` (centres undefined) stands 24.7 µM.
The figure for `C/C=C1/C2=CCCN3C(=O)O[C@H]([C@H]1O)[C@H]23` is 2.94 µM; for `COc1cc(NC(=O)c2ccc3c(c2)OCO3)ccc1-c1cc2ccccc2oc1=O` it is 2.19 µM.
